Reference: patent publication US20220087979A1, “TREATMENT OF MALIGNANCIES” (Board of Trustees of Michigan State University, priority 2017, published 2022)

Assays:
cOS Gracie = assay: Tumor cell growth inhibition, cOS Gracie; type: cell-based; conditions: Canis lupus familiaris; Canine Osteosarcoma cell line cOS Gracie
Description: (§1) The pIC50 values shown in Table 1, herein, was determined as the negative log of the amount of compound required to inhibit tumor cell growth by 50% (the IC50). […] A pIC50 of 4 indicates an IC50 of 10-4.

cOS Brandie mets = assay: Tumor cell growth inhibition, cOS Brandie mets; type: cell-based; conditions: Canis lupus familiaris; Canine Osteosarcoma cell line cOS Brandie mets
Description: as §1

Fel SCC3 = assay: Tumor cell growth inhibition, Fel SCC3; type: cell-based; conditions: Felis catus, SCC-3; Feline Squamous Cell Carcinoma cell line Fel SCC3
Description: as §1

HS BD = assay: Tumor cell growth inhibition, HS BD; type: cell-based; conditions: Canis lupus familiaris; Canine Histiocytic Sarcoma cell line HS BD
Description: as §1

HS DH82 = assay: Tumor cell growth inhibition, HS DH82; type: cell-based; conditions: Canis lupus familiaris; Canine Histiocytic Sarcoma cell line HS DH82
Description: as §1

cOS Ginger = assay: Tumor cell growth inhibition, cOS Ginger; type: cell-based; conditions: Canis lupus familiaris; Canine Osteosarcoma cell line cOS Ginger
Description: as §1

hOS MG63 = assay: Tumor cell growth inhibition, hOS MG63; type: cell-based; conditions: MG-63; Human Osteosarcoma cell line hOS MG63
Description: as §1

hOS U2OS = assay: Tumor cell growth inhibition, hOS U2OS; type: cell-based; conditions: Human Osteosarcoma cell line hOS U2OS
Description: as §1

Normal FB1 = assay: Cell growth inhibition, Normal FB1; type: cell-based; conditions: Canis lupus familiaris; Canine Normal Firbroblasts Normal FB1
Description: as §1

cOS Blaz = assay: Tumor cell growth inhibition, cOS Blaz; type: cell-based; conditions: Canis lupus familiaris; Canine Osteosarcoma cell line cOS Blaz
Description: as §1

Hela cells = assay: Tumor cell growth inhibition, Hela cells; type: cell-based; conditions: Human Cervical Adenocarcinoma
Description: as §1

cOS Abrams = assay: Tumor cell growth inhibition, cOS Abrams; type: cell-based; conditions: Canis lupus familiaris; Canine Osteosarcoma cell line cOS Abrams
Description: as §1

Normal FB2 = assay: Cell growth inhibition, Normal FB2; type: cell-based; conditions: Canis lupus familiaris; Canine Normal Firbroblasts Normal FB2
Description: as §1

cOS D17 = assay: Tumor cell growth inhibition, cOS D17; type: cell-based; conditions: Canis lupus familiaris; Canine Osteosarcoma cell line cOS D17
Description: as §1

HS PJ = assay: Tumor cell growth inhibition, HS PJ; type: cell-based; conditions: Canis lupus familiaris; Canine Histiocytic Sarcoma cell line HS PJ
Description: as §1

Fel SCC2 = assay: Tumor cell growth inhibition, Fel SCC2; type: cell-based; conditions: Felis catus, SCC-2; Feline Squamous Cell Carcinoma cell line Fel SCC2
Description: as §1

cOS Brandie primary = assay: Tumor cell growth inhibition, cOS Brandie primary; type: cell-based; conditions: Canis lupus familiaris; Canine Osteosarcoma cell line cOS Brandie primary
Description: as §1

hOS Saos2 = assay: Tumor cell growth inhibition, hOS Saos2; type: cell-based; conditions: SAOS-2; Human Osteosarcoma cell line hOS Saos2
Description: as §1

Fel SCC1 = assay: Tumor cell growth inhibition, Fel SCC1; type: cell-based; conditions: Felis catus; Feline Squamous Cell Carcinoma cell line Fel SCC1
Description: as §1

LC3B-II = assay: LC3B immunoblot in U87-MG cells; type: cell-based; conditions: for amount of LC3B-II: TCH-165 10 μM 16 h or BafA1 100 nM 4 h, alone (FIG. 2A)
Description: (§2) U87-MG cells at 70% confluency were treated with test compounds at the reported concentration and time. Cells were washed with warm PBS and trypsinized with 0.25% Trypsin-EDTA. Samples were collected in chilled PBS, pelleted and washed twice with chilled PBS. Cells were then lysed with celLytic buffer supplemented with 1% sigma fast inhibitor cocktail. Total protein was quantified by BCA reagent, and 20 μg resolved on a 12% (LC3B) or 30 μg on a 4-12% (p62, ATG5, beclin1) Tris-glycine SDS-PAGE, and immunoblotted with antigen specific antibody (1:1000), and goat anti-rabbit HRP (1:1000). Blots were developed with ECL western reagent and imaged with x-ray film.
To determine whether TCH-165 affects LC3B-II formation, glioblastoma astrocytoma (U87-MG) cells were treated with TCH-165 and the level of LC3B-II monitored by immunoblot. U87-MG cells were incubated with different concentrations of TCH-165 and immunoblotted with LC3B-specific antibody. U87-MG cells were also treated with a specific amount of TCH-165 (10 μM) and evaluated at 0, 6, 12, and 24 hours. Cell lysates were immunoblotted with LC3B-specific antibody and anti-GAPDH as a loading control.
U87-MG cells were treated with either vehicle (DMSO) or TCH-165 (10 μM) for 16 h, followed by treatment with bafilomycin A1 (100 nM) for 4 h. Conversion of LC3BI to LC3BII was detected by immunoblot with LC3B-specific antibody.

[1] = test system: lysosomes of HEK293T cells; assay: Lysosome de-acidification live imaging (LysoSensor yellow/blue dextran, LAMP1-RFP); type: cell-based, Human; conditions: cells expressing LAMP1-RFP; TCH-165 10 μM, chloroquine 100 μM
Description: HEK293T cells cultured on cover glass slides were transduced with 30 particles per cell of LAMP1-RFP and cultured for 24 h. Cells were then incubated with either vehicle, TCH-165 (10 μM) or chloroquine (100 μM) for 12 h. LysoSensor Yellow/Blue dextran, 10,000 MW, Anionic (1 mg/mL) was then added for a further 12 h and cells imaged with an upright 60× Plan Apo oil objective on a Nikon A1 confocal microscope using standard filter sets for RFP, blue and yellow dyes.
Lysosensor yellow/blue dextran is a pH sensitive dye that is […] (neutral pH). Lysosomes were distinguished from other acidic organelles by imaging with a combination of lysosensor yellow/blue dextran and LAMP1-RFP.

U87-MG cells [2] = assay: Cell viability assay (MTS assay); type: cell-based; conditions: 72 h
Description: (§3) FIG. 5B graphically illustrates the viability of glioblastoma cells treated with different concentrations of TCH-165 or TCH-023 for 72 h. MTS reagent was added to quantify cell viability and the absorbance measured at 490 nm 2 h later. Absorbance readings are expressed as percentage of vehicle control for three independent experiments and data are graphed as mean±SD.
as §3, with “5D is a bar graph showing” for “5B graphically illustrates”, “temozolomide” for “TCH-023”, “was then” for “was”, “added” for “added to quantify cell viability”, “and” for “and the”
U87-MG cells were seeded in a clear 96-well plate at a density of 1.0×10^4 cells per well. Cells were treated with different concentrations of TCH-165 or temozolomide for 72 h. MTS solution (20 μL) was then added and incubated under cell culture conditions for 2 h. Absorbance was read at 490 nm and expressed as a percentage of vehicle control.

HEK293 = assay: Cell growth inhibition, HEK293; type: cell-based; conditions: Human Embryonic Kidney HEK293
Description: as §1

[3] = dog, in vivo
autolysosome formation [4] = assay: Tandem RFP-GFP-LC3B autophagy sensor in U87-MG cells; type: cell-based; conditions: 10 μM, 24 h, FIG. 3A
Description: By combining an acid insensitive red fluorescent protein (RFP) with an acid sensitive green fluorescent protein (GFP), the conversion of autophagosomes (with neutral pH) to an autolysosome (with acidic pH) can be visualized by monitoring the specific loss of the GFP fluorescence upon acidification of the autophagosome following lysosomal fusion.
U87-MG cells were transduced with 30 particles per cell of tandem-RFP-GFP-LC3B and cultured for 24 h. Cells were then incubated with either vehicle or TCH-165 (10 μM) for an additional 24 h. Cells were fixed with 4% formaldehyde, counter stained with Hoechts DNA dye, and imaged on a Nikon C2 confocal microscope using standard filter sets for blue dye, GFP and RFP.

[5] = test system: lysosome associated membrane protein (LAMP)-1; assay: Confocal immunofluorescence of LAMP1 in U87-MG cells; type: cell-based; conditions: 10 μM, 24 h, FIG. 1D
Description: (§4) U87-MG cells were plated in complete medium at 2.5×10^5 cells/well of a four-chamber glass slide overnight. Fresh medium (500 μL) containing the test compound was added and allowed to incubate for the desire time under cell culture conditions. Cells were washed with chilled immunofluorescent (IF) wash buffer (1×PBS, pH 8.0) and fixed with methanol at −20° C. for 10 minutes. Cells were then washed 2× with IF wash buffer and incubated in blocking buffer (1×PBS, 5% normal goat serum, 0.3% Triton X-100 pH 8.0) for 1 h at RT. Blocking buffer was replaced with primary antibody diluted in dilution buffer (1×PBS, 1% BSA, 0.3% Triton X-100 pH 8.0) overnight (1:200) at 40° C. Primary antibody was washed off 3× and incubated in anti-rabbit Alexa Fluor 488 (1:500) and/or anti-mouse Alexa Fluor 594 for 1 h in the dark, at RT. Secondary antibodies were then washed off (3×) and nuclei stained with Hoechst (4 μg/mL) at RT, for 20 minutes. DNA dye was rinsed off and slides mounted in Prolong Gold and allowed to cure overnight at RT, in the dark. Slides were sealed with nail polish, and LC3B, LAMP1 and p62 punctae detected with a 60× Plan Apo oil objective on a Nikon C2+ or Nikon A1 confocal laser microscope.

beclin-1, ATG5 and ATG12 = assay: Immunoblot of autophagic regulators in U87-MG cells; type: cell-based; conditions: 24 h, FIG. 4
Description: as §2

p62 [6] = assay: p62 immunoblot in U87-MG cells; type: cell-based; conditions: concentration (FIG. 2C) and time (10 μM; 0-24 h, FIG. 2D) dependent
Description: as §2

p62 [7] = assay: Confocal immunofluorescence of p62 in U87-MG cells; type: cell-based; conditions: 10 μM, 24 hr, immunofluorescence imaging
Description: All statistical analyses were performed on densitometry data (imageJ) of five individual experiments. Data are graphed as mean±SD and were analyzed by One-Way ANOVA with Bonferroni's multiple comparison test or by student t-test for 2 samples (ns=not significant, *p<0.05, *p<0.01, **p<0.001).
U87-MG cells were plated in complete medium at 2.5×10^5 cells/well of a four-chamber glass slide overnight. Fresh medium (500 μL) containing the test compound was added and allowed to incubate for the desire time under cell culture conditions. Cells were washed with chilled immunofluorescent (IF) wash buffer (1×PBS, pH 8.0) and fixed with methanol at −20° C. for 10 minutes. Cells were then washed 2× with IF wash buffer and incubated in blocking buffer (1×PBS, 5% normal goat serum, 0.3% Triton X-100 pH 8.0) for 1 h at RT. Blocking buffer was replaced with primary antibody diluted in dilution buffer (1×PBS, 1% BSA, 0.3% Triton X-100 pH 8.0) overnight (1:200) at 40° C. Primary antibody was washed off 3× and incubated in anti-rabbit Alexa Fluor 488 (1:500) and/or anti-mouse Alexa Fluor 594 for 1 h in the dark, at RT. Secondary antibodies were then washed off (3×) and nuclei stained with Hoechst (4 μg/mL) at RT, for 20 minutes. […] Slides were sealed with nail polish, and LC3B, LAMP1 and p62 punctae detected with a 60× Plan Apo oil objective on a Nikon C2+ or Nikon A1 confocal laser microscope.

LC3B = assay: Confocal immunofluorescence of LC3B in U87-MG cells; type: cell-based
Description: as §4
LC3B polypeptides were stained with LC3B antibody/Alexa Fluor 488 secondary (green) and the cellular nuclei were stained with Hoechst DNA dye (blue).

MCT C2 = assay: Tumor cell growth inhibition, MCT C2; type: cell-based; conditions: Canis lupus familiaris; Canine Mastocytoma cell line MCT C2
Description: as §1

U87-MG cells [8] = assay: Cytotoxicity assay (LDH assay); type: cell-based; conditions: Homo sapiens, U-87 MG, LDH-based assay, 72 h, FIG. 5E-5F
Description: U87-MG cells were seeded in a clear 96-well plate at a density of 1.0×10^4 cells per well. Cells were treated with different concentrations of TCH-165 or temozolomide for 72 h. Culture medium was then assayed for lactate dehydrogenase (LDH) activity according to the manufacturer's protocol. Briefly, cells for maximum toxicity were treated with 10 μL of lysis buffer 45 minutes prior to enzyme assay. Culture media (50 μL) were then transferred to new 96 well plate and 50 μL of substrate mix added. The reaction mixtures were incubated at RT protected from light for 30 minutes. Stop solution (50 μL) was then added and absorbance read at 490 nm. Toxicity was expressed as a fraction of sample treated with lysis buffer.

autolysosome formation [9] = assay: Co-localization of LC3B with LAMP1 in U87MG cells; type: cell-based; conditions: 10 μM, 24 h
Description: as §4
Co-localization of LC3B with LAMP1 was therefore examined to distinguish inhibition of autolysosome formation from autolysosome de-acidification. […]

SMILES: CCOC(=O)[C@]1(c2ccccc2)N=C(c2ccccc2)N(Cc2ccccc2)[C@@H]1c1ccccc1 [TCH-013]
- IC50 (cOS Gracie): 6.31 µM
- IC50 (cOS Brandie mets): 15.8 µM
- IC50 (Fel SCC3): 50.1 µM
- IC50 (HS BD): 5.01 µM
- IC50 (HS DH82): 10 µM
- IC50 (cOS Ginger): 3.16 µM
- IC50 (hOS MG63): 20 µM
- IC50 (hOS U2OS): 15.8 µM
- IC50 (Normal FB1): 200 µM
- IC50 (cOS Blaz): 12.6 µM
- IC50 (Hela cells): 10 µM
- IC50 (cOS Abrams): 15.8 µM
- IC50 (Normal FB2): 39.8 µM
- IC50 (cOS D17): 20 µM
- IC50 (HS PJ): 3.98 µM
- IC50 (Fel SCC2): 200 µM
- IC50 (cOS Brandie primary): 10 µM
- IC50 (hOS Saos2): 5.01 µM
- IC50 (Fel SCC1): 10 µM

SMILES: CO/C1=C\C(C)=C\[C@@H](C)[C@@H](O)[C@@H](C)C/C(C)=C/C=C/[C@H](OC)[C@@H]([C@@H](C)[C@@H](O)[C@H](C)[C@@]2(O)C[C@@H](O)[C@H](C)[C@@H](C(C)C)O2)OC1=O [BafA1, bafilomycin A1, reference compound]
- amount of LC3B-II (LC3B-II; U87-MG): significant increase

SMILES: CCN(CC)CCCC(C)Nc1ccnc2cc(Cl)ccc12 (centres unmarked) [chloroquine, reference compound]
- lysosensor yellow/blue dextran fluorescence of lysosomes [1]: shifted the fluorescence to the yellow spectrum

SMILES: CCOC(=O)[C@]1(c2ccccc2)N=C(c2ccccc2)N[C@@H]1c1ccccc1 [TCH-023, reference compound]
- induction of cell death (U87-MG cells [2]; U87-MG): did not induce any cell death
- LC3B-II accumulation (LC3B-II; U87-MG, structurally related control): no effect
- inhibition of autophagy (LC3B immunoblot) (LC3B-II; glioblastoma cells, 10 μM, 24 h, FIG. 5C): did not inhibit autophagy

SMILES: Cn1nnc2c(C(N)=O)ncn2c1=O [TMZ, temozolomide]
- U87-MG cells killed (U87-MG cells [2]; 1 mM, FIG. 5D): 54%

SMILES: CCOC(=O)[C@]1(c2ccccc2)N=C(c2ccc(OC)cc2)N(Cc2ccccc2)[C@@H]1c1ccc(NCc2ccccc2)cc1 [TCH-165]
- GI50 (U87-MG cells [2]; Homo sapiens, U-87 MG, U87-MG, MTS-based assay, FIG. 5B): 4.5 µM
- IC50 (cOS Gracie): 2 µM
- IC50 (cOS Brandie mets): 3.98 µM
- IC50 (HEK293): 2 µM
- IC50 (Fel SCC3): 200 µM
- IC50 (HS BD): 6.31 µM
- IC50 (HS DH82): 2 µM
- tolerance / signs of toxicity [3]: without showing any clinical or biochemical signs of toxicity
- IC50 (cOS Ginger): 7.94 µM
- IC50 (hOS MG63): 3.16 µM
- GFP and RFP fluorescence of vacuoles in RFP-GFP-LC3B cells (autolysosome formation [4]): retained both GFP and RFP positive vacuoles
- number of lysosomes (LAMP1 staining) [5]: increased numbers of lysosomes
- effect on expression of beclin-1, ATG5 and ATG12 (beclin-1, ATG5 and ATG12): did not appear to have any significant effect
- IC50 (hOS U2OS): 5.01 µM
- IC50 (Normal FB1): 200 µM
- IC50 (cOS Blaz): 6.31 µM
- p62 level (p62 [6]): increase in p62
- p62 punctae (p62 [7]): increase in p62 punctae
- LC3B-II levels versus TCH-165 alone (LC3B-II; U87-MG, TCH-165 10 μM 16 h followed by BafA1 100 nM 4 h): did not further increase
- amount of LC3B-II (LC3B-II; U87-MG): significant increase
- LC3B-II levels (LC3B-II; U87-MG, different concentrations, 10 μM at 0, 6, 12, 24 h (FIG. 1A, 1B)): increases LC3B-II levels
- IC50 (Hela cells): 7.94 µM
- IC50 (cOS Abrams): 12.6 µM
- IC50 (Normal FB2): 20 µM
- number of LC3B punctate (LC3B; 10 μM, 16 hours, FIG. 1C): significant increase
- number of autophagic vacuoles (LC3B; torin1 100 nM 4 h followed by TCH-165 10 μM 16 h, FIG. 2B): significantly increased
- IC50 (MCT C2): 100 µM
- IC50 (cOS D17): 6.31 µM
- IC50 (HS PJ): 3.16 µM
- IC50 (Fel SCC2): 25.1 µM
- lysosensor yellow/blue dextran fluorescence of lysosomes [1]: mainly had red/blue vacuoles
- IC50 (cOS Brandie primary): 3.16 µM
- GI50 (U87-MG cells [8]): 7 µM
- IC50 (hOS Saos2): 3.16 µM
- Co-localization of LC3B and LAMP1 (autolysosome formation [9]): not observed
- IC50 (Fel SCC1): 2 µM

SMILES: CCC(=O)N1CCN(c2ccc(-n3c(=O)ccc4cnc5ccc(-c6cnc7ccccc7c6)cc5c43)cc2C(F)(F)F)CC1 [torin1, reference compound]
- accumulation of autophagic vacuoles (LC3B; torin1 100 nM alone, FIG. 2B): modest accumulation
